According to ChEMBL document CHEMBL3525934 (Drug Metab Dispos, 2013):

Assays:
Assay type in all cases: ADME
Settings in all cases: 0.5 h
Cytochrome P450 2C18 [1] = molecular target: T1, Cytochrome P450 2C18 (Homo sapiens, UniProt P33260); test: Drug metabolism in supersomes expressing human recombinant CYP2C18 assessed as enzyme-mediated cyanide adduct formation at 100 uM after 30 mins measured per nmol of P450 by HPLC analysis in presence of KCN
T1 sequence (P33260 whole entry): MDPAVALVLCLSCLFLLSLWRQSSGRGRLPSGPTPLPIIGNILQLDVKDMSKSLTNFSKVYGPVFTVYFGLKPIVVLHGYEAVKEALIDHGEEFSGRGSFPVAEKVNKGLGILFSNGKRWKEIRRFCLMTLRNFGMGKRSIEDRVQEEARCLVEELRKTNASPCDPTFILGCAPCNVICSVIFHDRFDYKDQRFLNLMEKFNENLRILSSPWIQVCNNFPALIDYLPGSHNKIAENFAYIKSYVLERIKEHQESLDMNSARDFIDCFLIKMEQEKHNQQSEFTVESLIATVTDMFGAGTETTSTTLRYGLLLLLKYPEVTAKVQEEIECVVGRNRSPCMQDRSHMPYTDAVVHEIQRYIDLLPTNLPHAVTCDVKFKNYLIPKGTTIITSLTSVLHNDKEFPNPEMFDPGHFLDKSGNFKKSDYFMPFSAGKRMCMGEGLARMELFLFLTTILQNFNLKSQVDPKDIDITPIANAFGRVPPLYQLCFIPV

Cytochrome P450 1A1 [2] = molecular target: T2, Cytochrome P450 1A1 (Homo sapiens, UniProt P04798); test: Drug metabolism in supersomes expressing human recombinant CYP1A1 assessed as enzyme-mediated cyanide adduct formation at 100 uM after 30 mins measured per nmol of P450 by HPLC analysis in presence of KCN
T2 sequence (P04798 whole entry): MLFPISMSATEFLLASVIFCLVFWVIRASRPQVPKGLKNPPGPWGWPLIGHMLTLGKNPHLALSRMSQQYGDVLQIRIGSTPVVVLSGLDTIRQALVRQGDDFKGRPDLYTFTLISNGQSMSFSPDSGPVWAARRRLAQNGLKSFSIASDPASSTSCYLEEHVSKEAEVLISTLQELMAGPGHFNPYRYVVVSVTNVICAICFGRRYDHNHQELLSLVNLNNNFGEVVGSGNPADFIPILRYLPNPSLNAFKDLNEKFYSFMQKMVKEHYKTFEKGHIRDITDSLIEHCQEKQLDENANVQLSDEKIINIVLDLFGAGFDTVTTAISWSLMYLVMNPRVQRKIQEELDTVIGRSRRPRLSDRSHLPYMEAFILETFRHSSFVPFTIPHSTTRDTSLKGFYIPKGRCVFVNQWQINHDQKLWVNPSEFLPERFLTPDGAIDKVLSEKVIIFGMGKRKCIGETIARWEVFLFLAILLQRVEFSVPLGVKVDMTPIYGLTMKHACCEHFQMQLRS

Cytochrome P450 1B1 = molecular target: T3, Cytochrome P450 1B1 (Homo sapiens, UniProt Q16678); test: Drug metabolism in supersomes expressing human recombinant CYP1B1 assessed as enzyme-mediated N-desmethylclozapine metabolite formation at 10 uM after 30 mins measured per nmol of P450 by HPLC analysis
T3 sequence (Q16678 whole entry): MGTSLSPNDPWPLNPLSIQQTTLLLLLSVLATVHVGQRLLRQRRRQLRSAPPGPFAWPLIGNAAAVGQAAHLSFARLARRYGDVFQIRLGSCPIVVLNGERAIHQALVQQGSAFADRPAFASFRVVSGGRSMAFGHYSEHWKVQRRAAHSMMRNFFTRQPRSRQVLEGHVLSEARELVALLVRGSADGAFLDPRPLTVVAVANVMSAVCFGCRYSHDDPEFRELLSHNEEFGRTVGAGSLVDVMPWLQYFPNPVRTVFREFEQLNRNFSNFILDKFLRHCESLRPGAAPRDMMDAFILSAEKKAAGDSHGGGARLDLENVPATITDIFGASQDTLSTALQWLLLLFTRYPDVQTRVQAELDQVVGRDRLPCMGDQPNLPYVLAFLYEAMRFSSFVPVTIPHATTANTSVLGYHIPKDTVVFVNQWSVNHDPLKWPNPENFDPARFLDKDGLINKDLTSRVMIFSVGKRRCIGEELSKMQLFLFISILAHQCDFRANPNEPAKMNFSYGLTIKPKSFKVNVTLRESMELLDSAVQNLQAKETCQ

Cytochrome P450 2C18 [3] = molecular target: T1, Cytochrome P450 2C18; test: Drug metabolism in supersomes expressing human recombinant CYP2C18 assessed as enzyme-mediated N-desmethylclozapine metabolite formation at 10 uM after 30 mins measured per nmol of P450 by HPLC analysis
Cytochrome P450 2C18 [4] = molecular target: T1, Cytochrome P450 2C18; test: Drug metabolism in supersomes expressing human recombinant CYP2C18 assessed as enzyme-mediated clozapine-N-oxide metabolite formation at 10 uM after 30 mins measured per nmol of P450 by HPLC analysis
Cytochrome P450 2C19 = Cytochrome P450 2C19 (Homo sapiens, UniProt P33261); test: Drug metabolism in supersomes expressing human recombinant CYP2C19 assessed as enzyme-mediated clozapine-N-oxide metabolite formation at 10 uM after 30 mins measured per nmol of P450 by HPLC analysis
Cytochrome P450 2C18 [5] = molecular target: T1, Cytochrome P450 2C18; test: Drug metabolism in supersomes expressing human recombinant CYP2C18 assessed as enzyme-mediated clozapine-N-oxide metabolite formation at 100 uM after 30 mins measured per nmol of P450 by HPLC analysis
Cytochrome P450 1A1 [6] = molecular target: T2, Cytochrome P450 1A1; test: Drug metabolism in supersomes expressing human recombinant CYP1A1 assessed as enzyme-mediated total GSH conjugate formation at 100 uM after 30 mins measured per nmol of P450 by HPLC analysis in presence of GSH and hGST P1-1
Cytochrome P450 1A2 = molecular target: T4, Cytochrome P450 1A2 (Homo sapiens, UniProt P05177); test: Drug metabolism in supersomes expressing human recombinant CYP1A2 assessed as enzyme-mediated total GSH conjugate formation at 100 uM after 30 mins measured per nmol of P450 by HPLC analysis in presence of GSH and hGST P1-1
T4 sequence (P05177 whole entry): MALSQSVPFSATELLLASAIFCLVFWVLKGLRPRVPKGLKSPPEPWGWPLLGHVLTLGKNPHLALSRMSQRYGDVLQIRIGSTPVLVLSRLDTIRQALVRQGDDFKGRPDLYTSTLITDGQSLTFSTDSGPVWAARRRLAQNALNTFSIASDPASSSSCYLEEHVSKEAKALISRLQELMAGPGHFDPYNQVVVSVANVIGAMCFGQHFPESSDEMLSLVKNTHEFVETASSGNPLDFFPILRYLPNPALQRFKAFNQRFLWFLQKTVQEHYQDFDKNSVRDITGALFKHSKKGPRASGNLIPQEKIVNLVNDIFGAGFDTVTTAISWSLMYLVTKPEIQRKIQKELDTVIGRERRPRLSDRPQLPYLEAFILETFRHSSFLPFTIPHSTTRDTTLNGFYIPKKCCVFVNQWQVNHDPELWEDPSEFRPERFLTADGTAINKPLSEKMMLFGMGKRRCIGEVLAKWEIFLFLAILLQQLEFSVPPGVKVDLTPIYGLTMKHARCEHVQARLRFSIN

Cytochrome P450 2D6 = Cytochrome P450 2D6 (Homo sapiens, UniProt P10635); test: Drug metabolism in supersomes expressing human recombinant CYP2D6 assessed as enzyme-mediated N-desmethylclozapine metabolite formation at 100 uM after 30 mins measured per nmol of P450 by HPLC analysis
Sequence of Cytochrome P450 2D6 (P10635 whole entry): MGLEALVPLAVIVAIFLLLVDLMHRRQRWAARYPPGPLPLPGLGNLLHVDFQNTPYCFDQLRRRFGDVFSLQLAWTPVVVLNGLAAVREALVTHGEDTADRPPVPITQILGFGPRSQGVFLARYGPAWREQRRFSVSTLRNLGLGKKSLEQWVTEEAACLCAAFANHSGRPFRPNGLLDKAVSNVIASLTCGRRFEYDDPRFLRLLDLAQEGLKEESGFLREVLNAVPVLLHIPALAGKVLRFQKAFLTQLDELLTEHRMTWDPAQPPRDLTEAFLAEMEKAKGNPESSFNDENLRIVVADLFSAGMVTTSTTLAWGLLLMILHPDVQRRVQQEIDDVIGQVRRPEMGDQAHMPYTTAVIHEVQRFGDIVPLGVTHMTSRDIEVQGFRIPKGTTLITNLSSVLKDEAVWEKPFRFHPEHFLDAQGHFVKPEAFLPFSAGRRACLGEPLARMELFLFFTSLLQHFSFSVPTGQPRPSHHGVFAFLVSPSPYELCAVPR

Sequence of Cytochrome P450 2C19 (P33261 whole entry): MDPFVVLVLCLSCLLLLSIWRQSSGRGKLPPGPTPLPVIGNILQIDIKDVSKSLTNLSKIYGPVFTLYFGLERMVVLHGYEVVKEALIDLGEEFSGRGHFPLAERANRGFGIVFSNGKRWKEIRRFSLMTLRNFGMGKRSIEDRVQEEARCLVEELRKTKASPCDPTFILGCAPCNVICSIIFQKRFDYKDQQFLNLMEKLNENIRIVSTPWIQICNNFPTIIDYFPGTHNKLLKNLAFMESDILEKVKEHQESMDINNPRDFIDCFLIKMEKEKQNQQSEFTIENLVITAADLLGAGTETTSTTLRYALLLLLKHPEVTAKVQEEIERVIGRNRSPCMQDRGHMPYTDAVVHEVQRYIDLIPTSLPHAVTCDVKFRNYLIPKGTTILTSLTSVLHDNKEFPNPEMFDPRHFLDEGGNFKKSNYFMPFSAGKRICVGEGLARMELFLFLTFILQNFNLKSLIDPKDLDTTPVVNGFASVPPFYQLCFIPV

Structure (SMILES): CN1CCN(C2=Nc3cc(Cl)ccc3Nc3ccccc32)CC1 [CLOZAPINE]
- Drug metabolism (Cytochrome P450 2C18 [1]): 0.41 nmol/min
- Drug metabolism (Cytochrome P450 1A1 [2]): 0.024 nmol/min
- Drug metabolism (Cytochrome P450 1B1): 1.16 nmol/min
- Drug metabolism (Cytochrome P450 2C18 [3]): 4.08 nmol/min/nmol P450
- Drug metabolism (Cytochrome P450 2C18 [4]): 0.025 nmol/min/nmol P450
- Drug metabolism (Cytochrome P450 2C19): 0.71 nmol/min/nmol P450
- Drug metabolism (Cytochrome P450 2C18 [5]): 0.065 nmol/min
- Drug metabolism (Cytochrome P450 1A1 [6]): 0.32 nmol/min
- Drug metabolism (Cytochrome P450 1A2): 0.25 nmol/min
- Drug metabolism (Cytochrome P450 2D6): 23.7 nmol/min
